Reference: patent publication US20220348876A1, “METABOLISM GUIDES DEFINITIVE LINEAGE SPECIFICATION DURING ENDOTHELIAL TO HEMATOPOIETIC TRANSITION” (Amniotics AB, priority 2019, published 2022)

How the values were obtained:
Assay type in all cases: cell-based, human
HE cells [1] = assay: single-cell RNAseq of treated HE cells at day 2
Procedure: Sorted HE, EHT and HSC-like cells as well magnetically selected (Miltenyi Biotec) cord blood CD34^+ cells were plated onto Matrigel (16 μg/cm^2, Corning)-coated 96-well flat bottom plates in HE medium (Ditadi, A. & Sturgeon, C. M. Methods 101, 65-72 (2016)) with 1% penicillin-streptomycin and kept in a humidified incubator at 37° C., 5% CO2, 4% O2 overnight. The following day (day 0), wells were washed twice with PBS and fresh HE medium was added, together with UK5099 (10 μM) or DCA (3 mM), where indicated. On day 1 and 2 (as indicated), cells were washed twice with PBS 0.04% UltraPure BSA and collected after a 2-minute incubation at 37° C. with StemPro Accutase Cell Dissociation Reagent. Cells were spun down, resuspended in PBS 0.04% UltraPure BSA, counted (yield between 8,000-18,000 cells) and library preparation was conducted according to the Chromium Single Cell 3′ Reagent kit v3 instructions (10× Genomics). Sequencing was performed on a NOVASeq 6000 from Illumina with the run parameters (28-8-0-91) recommended by 10× Genomics with a final loading concentration of 300 pM of the pooled libraries. Human Umbilical Cord Blood samples were collected from Skane University Hospital (Lund and Malmo) and Helsingborg Hospital with informed consents according to guidelines approved by the regional ethical committee.
The data was processed and analyzed using Seurat v3.1.0, where cells were allowed to have up to 20% mitochondrial reads prior to log-normalization and finding the top 500 variable genes using the “vst” method. Cell cycle scores were calculated and the data was scaled regressing on mitochondrial content and the difference of the S and G2M score. Principal components were calculated prior to calculating a UMAP. Pseudotime trajectories describing two developmental routes were identified in our EHT dataset using Slingshot (Street, K. et al. BMC Genomics 19, 477 (2018)) along which the cells were ordered. The cells were then binned along each trajectory where the cell-type composition of each bin was calculated as percentages. Cord blood CD34^+ cells were mapped to our data and labeled using scCoGAPS (Stein-O'Brien, G. L. et al. Cell Syst 8, 395-411.e8 (2019)). CS13 data from Zeng et al. (Zeng, Y. et al. Cell Res 1-14 (2019)) was read and processed to make a UMAP from which the cells they name as “AEC” and “Hem” were identified. These 99 cells were mapped to our data and labeled using SCMAP (Kiselev, V. Y. et al. Nat Methods 15, 359-362 (2018)). Our EHT data was mapped to data from Zeng et al. (Zeng, Y. et al. Cell Res 1-14 (2019)) and vice versa using scCoGAPS where 10 patterns were identified in each data set and then projected to each other using projectR. Each cell was assigned to the group that achieved the highest weight. An overview showing the relationship between cell-types and patterns was done by forming a contingency table on which correspondence analysis was performed using the ca package for R. Differentially expressed genes were found using the FindAllMarkers function. Cell numbers for day 1 samples are as follows: HE=1451, EHT=1523, HSC-like=732. […] All assessed endothelial and hematopoietic genes were previously used in several publications to validate the EHT process (Zhou, F. et al. Nature 533, 487-492 (2016); Swiers, G. et al. Nat Commun 4, 2924 (2013); Ng, E. S. et al. Nature Biotechnology 34, 1168-1179 (2016) and Guibentif, C. et al. Cell Reports 19, 10-19 (2017)). […]

HE cells [2] = assay: Colony forming unit assay of subcultured HE cells; conditions: for ratio of CFU-E colonies to the sum of CFU-G, CFU-GM and CFU-M colonies: 6 days, compared to the control
Procedure: Subcultured HE cells were treated with StemPro Accutase Cell Dissociation Reagent for 2 minutes at 37° C. and dissociated cells were resuspended in 3 ml Methocult H4230 (STEMCELL Technologies, France) (prepared according to manufacturer's instructions, with 20 mL Iscove's Modified Dulbecco's Medium containing 2.5 μg hSCF, 5 μg GM-CSF, 2.5 μg IL-3 and 500 U EPO). Each mixture was divided onto 2 wells of a non-tissue culture treated 6-well plate. Following a 12-day incubation in a humidified incubator at 37° C., 5% CO2, 20% O2, colonies were morphologically distinguished and scored. For globin analysis, colonies in Methocult wells were harvested with PBS, washed thoroughly and frozen in RLT buffer with β-mercaptoethanol. Following RNA extraction and RT (Qiagen), gene expression was assessed with taqman probes by q-PCR. The taqman probes used in this study are HBA1/2 (Hs00361191_g1), HBE1 (Hs00362216_m1), HBG2/1 (Hs00361131_g1) and KLF1 (Hs00610592_m1).

HE cells [3] = assay: GPA+ clones from single HE cells on OP9-DL1 stroma; conditions: of 552 single cells per condition, day 14; control 9
Description: In some examples to further assess the effect of pyruvate manipulation on a single cell level, single HE cells were sorted onto OP9-DL1 stroma and GPA^+ clones were scored at day 14. From a total of 552 single cells per condition, 12 GPA^+ clones were detected in the UK5099-treated condition and 7 GPA^+ clones in the DCA-treated condition as compared to 9 GPA^+ clones in the control (FIG. 14, d).

HE cells [4] = assay: HE cell subculture with compounds, flow cytometry
[5] = 3 or 6 days of UK5099, vs untreated

SMILES	less cells in cluster 7 compared to the control (HE cells [1]; day 2, DCA 3 mM) [%]	ratio of CFU-E colonies to the sum of CFU-G, CFU-GM and CFU-M colonies (HE cells [2])	GPA+ clones (HE cells [3])	decrease in CD43+GPA+ population (HE cells [4]; day 6 of HE subculture, DCA 3 mM) [%]	increase in the percentage of CD43+CD45+ cells (HE cells [4]; deriving from HE, day 6, DCA 3 mM) [%]	expression of LSD1, GFI1 and GFI1B (HE cells [1]; UK5099-treated compared to DCA-treated cells)	average expression levels of erythroid lineage genes (RYK, KLF3, TAL1, GATA2, ZFPM1, KLF1, NFE2, ANK1, HBQ1) (HE cells [1]; clusters 6 and 7, vs untreated HE cells)	more cells in cluster 7 compared to the control (HE cells [1]; day 2, UK5099 10 μM) [%]	percentage of cells in cluster 6 (HE cells [1]; day 2, UK5099 10 μM or DCA 3 mM)	erythroid colony (CFU-E) formation (HE cells [2]; [5])	granulocyte and macrophage colonies (CFU-G, GM and M) (HE cells [2]; [5])	proliferation of CD45+ cells deriving from HE (HE cells [4]; CTV, UK5099 10 μM or DCA 3 mM)	frequency of HSC-like cells deriving from HE (HE cells [4]; UK5099 10 μM or DCA 3 mM)	proliferation of the GPA+ population deriving from HE (HE cells [4]; day 3, CTV, UK5099 10 μM or DCA 3 mM)	HE-derived CD43+GPA+ cell output (HE cells [4]; day 3 of subculture vs control, BPTES 25 μM, UK5099 10 μM, 1-AA 4 mM, DCA 3 mM)	levels of total CD43+ cells (HE cells [4]; day 6, treated vs untreated)	proliferation by EdU incorporation (HE cells [4]; days 1 and 2 of subculture, 24 h pulse)	decrease in the CD43+CD45+ population (HE cells [4]; deriving from HE cells, day 6, UK5099 10 μM)
O=C(O)C(Cl)Cl [DCA, dichloroacetate]	35	more than 3 -fold lower	7	50	80	–	–	–	–	–	–	–	–	–	–	–	–	–
N#C/C(=C\c1cn(-c2ccccc2)c2ccccc12)C(=O)O [UK5099]	–	20 -fold higher	12	–	–	higher levels	higher	38	constant between conditions	significantly increased	decreased	did not have an effect	did not have an effect	No differences	striking increase	unchanged	no differences	2 -fold
